Test results as given in patent US11717500B2, “Treatment of spondyloarthritis” (PHARMACYL AB, priority 2020, dated 2023).
Where a name gives a salt, the structure may show the parent alone. Read-outs that look alike come from different tables or passages of the source.

Experiments:
[1] = tested on: LPS-induced TNF-α production in RAW264.7 murine macrophage cells; assay: Suppression of LPS-induced TNF-α production in RAW264.7 macrophages (ELISA); assay type: cell-based; conditions: Mus musculus
Description: Macrophages serve a critical role in the initiation and propagation of inflammatory responses by releasing proinflammatory mediators, such as TNF-α. Lipopolysaccharide (LPS) is a potent initiator of an inflammatory response. During LPS stimulation, NF-κB signaling is activated to regulate the transcription of numerous genes involved in immunity and inflammation to produce proinflammatory cytokines, such as TNF-α. Suppression of LPS-induced TNF-α production in RAW264.7 macrophages treated with AABZ was investigated by evaluation of the generation of TNF-α.
The RAW264.7 macrophage line was maintained in DMEM supplemented with 5% FBS at 37° C. in a 5% CO2-humidified air environment. The RAW264.7 cells were seeded in 96-well plates at a density of 1×10^5/ml and a volume of 200 μl/well. The cells were incubated for 24 h in medium supplemented with 10% FBS and were then pre-incubated with or without the indicated concentrations of test substances for 2 h prior to the addition of LPS (1 μg/ml). The supernatants were subsequently harvested at various time points and production of the proinflammatory cytokine TNF-α in the culture medium was determined using a commercially available enzyme-linked immunosorbent assay (ELISA) kit according to the manufacturer's protocol.
Effects of some AABZs of the invention at 1 mM on LPS-induced TNF-production in RAW264.7 murine macrophage cells are shown in Table 2.

dopamine D2 receptor = dopamine D2 receptor (Homo sapiens (Human), UniProt P14416); assay: Dopamine D2 receptor affinity, in vitro radioligand binding with 125I-spiperone; conditions: 125I-spiperone as radioactive ligand
dopamine D2 receptor, sequence (P14416 whole entry, species assumed): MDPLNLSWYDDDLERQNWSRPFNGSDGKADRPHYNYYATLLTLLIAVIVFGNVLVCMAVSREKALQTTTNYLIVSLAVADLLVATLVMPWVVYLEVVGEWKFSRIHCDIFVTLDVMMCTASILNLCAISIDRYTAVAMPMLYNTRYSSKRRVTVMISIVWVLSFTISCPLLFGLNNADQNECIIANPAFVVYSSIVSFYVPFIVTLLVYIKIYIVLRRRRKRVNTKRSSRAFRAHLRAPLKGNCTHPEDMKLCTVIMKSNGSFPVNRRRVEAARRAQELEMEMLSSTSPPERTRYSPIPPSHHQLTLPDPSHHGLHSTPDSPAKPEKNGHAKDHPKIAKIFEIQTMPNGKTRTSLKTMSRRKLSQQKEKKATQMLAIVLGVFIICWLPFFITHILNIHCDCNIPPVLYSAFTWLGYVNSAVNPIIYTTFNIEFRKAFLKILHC
Description: It is well-known that drug compounds that have an affinity for the striatal dopamine D2 may give rise to adverse side effects, such as short-term extrapyramidal disorders and tardive dyskinesia.

NF-κB = conditions: T cells; cited from earlier work
NFAT = conditions: T cells; cited from earlier work
AP-1 = conditions: T cells; cited from earlier work
IκBβ = conditions: cited from earlier work
[2] = RAW264.7, read-out: % Inhibition of TNF-production

| SMILES | inhibition at 1000 µM [1, 2] [%] | IC50 (dopamine D2 receptor) [µM] | also measured |
| --- | --- | --- | --- |
| CCN(CC)CCNC(=O)c1ccc(NC(C)=O)cc1 [4-Acetamido-N-[2-(diethylamino)ethyl]benzamide hydrochloride] |  |  | inhibition at 1000 µM ([1]; 1 mM, LPS 1 μg/ml, RAW264.7 murine macrophage cells, read-out: % Inhibition of TNF-production): 56% |
| CCN(CC)CCNC(=O)c1ccc(NC(=O)C(C)C)c(Cl)c1 [4-Isobutyrylamino-3-chloro-N-[2-(diethylamino)ethyl]benzamide hydrochloride] | 63 |  |  |
| CCC(=O)Nc1ccc(C(=O)NCCN(CC)CC)cc1Cl [4-Propanoylamino-3-chloro-N-[2-(diethylamino)ethyl]benzamide hydrochloride] | 50 |  |  |
| CCN(CC)CCNC(=O)c1ccc(NC(C)=O)c(Cl)c1 [Cpd A, 4-Acetamido-3-chloro-N-[2-(diethylamino)ethyl]benzamide hydrochloride] | 45 | 975 | effect on NF-κB activity (NF-κB): inhibit activities; effect on NFAT activity (NFAT): inhibit activities; effect on AP-1 activity (AP-1): induce AP-1 activity; effect on breakdown of IκBβ (IκBβ): inhibit breakdown |
| CCN(CC)CCNC(=O)c1ccc(N)c(Cl)c1 [Declopramide, declopramide] |  | 38.6 |  |
